According to patent US6600091B1, “Enzymes responsible for the metabolism of zeatin” (The State of Oregon acting by and through the State Board …, priority 1998, dated 2003):

What was measured:
[1] = target: T1, Recombinant Protein Encoded by the ORF of Zeatin O-xylosyltranferase (Phaseolus vulgaris, UniProt P56725); experiment: Cytokinin conversion assay with recombinant protein encoded by the ORF of zeatin O-xylosyltransferase (radio-labeled cytokinin + glycosyl donor, HPLC); type: biochemical, Phaseolous vulgaris; conditions: for Product (%) / Product CPM / Substrate Left (%) / Substrate Left CPM: 125 μl protein from culture supernatant, 4 hrs
T1 construct: the ORF of the gene was excised from the pGem-T vector (Promega) using the restriction enzymes Not1 and Sal1; made in house; host or cells: E. coli BL21(DE3) pLysS
T1 sequence (P56725 1-454): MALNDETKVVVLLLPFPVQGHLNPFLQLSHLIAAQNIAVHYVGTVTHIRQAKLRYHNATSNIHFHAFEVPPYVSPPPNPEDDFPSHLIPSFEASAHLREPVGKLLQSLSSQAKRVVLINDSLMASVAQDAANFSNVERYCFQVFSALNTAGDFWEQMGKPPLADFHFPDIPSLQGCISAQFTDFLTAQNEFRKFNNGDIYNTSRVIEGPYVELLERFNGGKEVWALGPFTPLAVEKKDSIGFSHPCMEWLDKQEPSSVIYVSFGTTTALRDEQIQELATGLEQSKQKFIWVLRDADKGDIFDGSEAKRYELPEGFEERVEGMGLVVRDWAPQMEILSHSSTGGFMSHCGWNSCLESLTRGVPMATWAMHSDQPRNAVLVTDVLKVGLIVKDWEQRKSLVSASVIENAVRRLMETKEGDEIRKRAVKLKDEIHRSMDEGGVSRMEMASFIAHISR
Source text: Isolation of recombinant zeatin O-xylosyltransferase proteins. Zeatin O-xylosyltransferase protein was purified using the same techniques as described above. Briefly, the coding sequences were ligated into an IPTG inducible plasmid which was transformed into Epicurian Coli BL21(DE3) pLysS Competent cells (Stratagene, LaJolla, Calif.). IPTG was then used to induce protein. Cells were subsequently lysed and the protein was separated out through the use of ion exchange chromatography.
(§1) Assay for cytokinin conversion activity and analysis of reaction products. […] Briefly, ^14C-labeled cytokinins (specific activity of 24 mCi/mmol), glycosyl donor (3 mM of UDPG or UDPX), MgCl2 (0.05M) and ATP (0.5 mM) in 1 mM Tris, pH 8.0 were incubated with a specified amount of the recombinant protein at 27° C. […] The supernatant was concentrated to 100 μl in vacuo (Speed Vac Concentrator, Savant) and analyzed by HPLC using a reversed phase C18column.
(§2) The aqueous buffer consisted of 0.2M acetic acid adjusted to pH 3.5 with TEA. Samples were eluted with a linear gradient of methanol (5-50% over 90 minutes) in TEA buffer. The flow rate was 1 mL/min. and 0.5 mL fractions were collected. […] Radioactivity in these fractions was determined in Ready-Gel scintillation fluid (Beckman) with a Beckman LS 7000 scintillation counter.
Isolation and authentication of zeatin O-xylosyltransferase cDNA clones. To assess the enzyme activity of the protein encoded by zeatin O-xylosyltransferase, the ORF of the gene was excised from the pGem-T vector (Promega) using the restriction enzymes Not1 and Sal1. The resulting fragment was then ligated into the Not1/Sal1 site of the pZipLox plasmid.

[2] = target: T2, Recombinant Zeatin O-glucosyltransferase (Phaseolus lunatus, UniProt Q9ZSK5); experiment: Cytokinin conversion assay with recombinant zeatin O-glucosyltransferase (14C-cytokinin + glycosyl donor, products separated by HPLC); type: biochemical, Phaseolous lunatus
T2 construct: the polypeptide encoded by the ORF plus the 5′ untranslated region and the α-peptide from the cloning vector; alpha-peptide encoded by the cloning vector (33 amino acids, pZL1/ZipLox); made in house; host or cells: E. coli BL21(DE3) pLysS
T2 sequence (Q9ZSK5 1-459): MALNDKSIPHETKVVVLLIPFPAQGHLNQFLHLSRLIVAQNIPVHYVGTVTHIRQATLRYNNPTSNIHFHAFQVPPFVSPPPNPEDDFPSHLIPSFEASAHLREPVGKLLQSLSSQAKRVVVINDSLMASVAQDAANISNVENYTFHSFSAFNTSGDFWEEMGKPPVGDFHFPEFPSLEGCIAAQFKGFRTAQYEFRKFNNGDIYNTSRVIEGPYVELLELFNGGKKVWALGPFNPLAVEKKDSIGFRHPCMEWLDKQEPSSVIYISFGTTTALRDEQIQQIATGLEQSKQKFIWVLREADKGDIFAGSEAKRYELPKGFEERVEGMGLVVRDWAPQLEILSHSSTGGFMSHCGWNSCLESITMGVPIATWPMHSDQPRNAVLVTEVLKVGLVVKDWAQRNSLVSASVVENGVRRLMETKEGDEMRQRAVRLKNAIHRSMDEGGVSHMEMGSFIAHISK
Experimental: Isolation of recombinant zeatin O-glucosyltransferase proteins. To obtain recombinant proteins, purified plasmids were transformed into Epicurian Coli BL21(DE3) pLysS Competent cells (Stratagene, LaJolla, Calif.) following the recommended protocol. Colonies were selected on AMP-LB plates. An individual colony was grown overnight in SOC-AMP media and 0.5 ml of the culture was used to inoculate 50 mls of SOC-AMP media. […] After 4 hours cells were collected and frozen at −80° C. overnight. Cells were lysed the next day by thawing and resuspending in 0.5 ml of 0.2 M Tris pH 7.5 containing 1 mg/ml of lysozyme. DNAase (1 μg/10 μl sample) was added after a 10-min. cycle of freeze-thaw at −80° C. Soluble proteins were collected after centrifugation. Recombinant proteins were further purified on a DEAE anion exchange column using the Bio-Rad Biologic liquid chromatography system.
as §1, §2

[3] = glycosyl donor UDPG, B: DEAE-purified proteins (4 μg), approx. 0.5 nmole 14C-cytokinin
[4] = glycosyl donor UDPG, A: 200 μl supernatant from lysed cells, approx. 1 nmole 14C-labeled zeatin, 2 hr
[5] = glycosyl donor UDPX, A: 200 μl supernatant from lysed cells, approx. 1 nmole 14C-labeled zeatin, 2 hr

SMILES: CC(CO)CCNc1ncnc2nc[nH]c12 (stereo not drawn) [DHZ, dihydrozeatin]
- Product (%) ([1]; glycosyl donor UDPX): 78%
- Product CPM ([1]; glycosyl donor UDPX): 33237 CPM
- Substrate Left (%) ([1]; glycosyl donor UDPX): 22%
- Substrate Left CPM ([1]; glycosyl donor UDPX): 9244 CPM
- Formation of O-glucosyldihydrozeatin (in words) ([2]; DEAE-column purified recombinant protein): trace
- Product (%) [2, 3]: 1%
- Product CPM [2, 3]: 329 CPM
- Substrate Left (%) [2, 3]: 99%
- Substrate Left CPM [2, 3]: 24178 CPM

SMILES: C/C(=C\CNc1ncnc2c1ncn2[C@@H]1O[C@H](CO)[C@@H](O)[C@H]1O)CO [RZ, ribosylzeatin]
- Substrate Left (%) ([1]; glycosyl donor UDPX): 100%
- Substrate Left CPM ([1]; glycosyl donor UDPX): 39238 CPM

SMILES: C/C(=C\CNc1ncnc2[nH]cnc12)CO [Z, trans-zeatin]
- Conversion of zeatin (in words) ([1]; UDPG as the sugar donor): no detectable conversion
- Substrate Left (%) ([1]; glycosyl donor UDPG): 100%
- Substrate Left CPM ([1]; glycosyl donor UDPG): 41679 CPM
- Product (%) ([1]; glycosyl donor UDPX): 82%
- Product CPM ([1]; glycosyl donor UDPX): 35838 CPM
- Substrate Left (%) ([1]; glycosyl donor UDPX): 18%
- Substrate Left CPM ([1]; glycosyl donor UDPX): 7768 CPM
- Product (%) [2, 4]: 100%
- Product CPM [2, 4]: 39715 CPM
- Substrate Left (%) [2, 4]: 0 (0%)
- Substrate Left CPM [2, 4]: 0 (0%) CPM
- Product (%) [2, 3]: 14%
- Product CPM [2, 3]: 3731 CPM
- Substrate Left (%) [2, 3]: 86%
- Substrate Left CPM [2, 3]: 23115 CPM
- Conversion to O-glucosylzeatin (in words) ([2]; glycosyl donor UDPG, supernatant with recombinant protein, listed as 14C-zeatin): efficiently converted
- Product (%) [2, 5]: 18%
- Product CPM [2, 5]: 4956 CPM
- Substrate Left (%) [2, 5]: 82%
- Substrate Left CPM [2, 5]: 23078 CPM

SMILES: C/C(=C/CNc1ncnc2nc[nH]c12)CO [cis-Z, Cis-zeatin]
- Substrate Left (%) ([1]; glycosyl donor UDPX): 100%
- Substrate Left CPM ([1]; glycosyl donor UDPX): 29460 CPM
